Measured values as given in ChEMBL document CHEMBL5131389, “PSMA-targeted small-molecule docetaxel conjugate: Synthesis and preclinical evaluation” (Eur J Med Chem, 2022).
In brackets after ≈: the same amount, converted by molar mass. Activity calls are given as the source filed them. The calls are words filed in the database; no cut-off is given here.

Columns and labels:
[1] = MRT (0 to t) in Soviet Chinchilla rabbit at 8.1 mg/kg, iv administered as pluronic F127 formulation measured upto 72 hrs by high-performance liquid chromatography tandem mass spectrometric analysis; type: ADME, organism-based, Oryctolagus cuniculus; details: in vivo
[2] = Acute toxicity in Wistar rat assessed as kidney lesion at 15 to 279 mg/kg, iv administered as pluronic F127 formulation and measured for 14 days; type: organism-based; details: in vivo, 336 h, dose 15-279 mg/kg, time 14 day
DU-145 [3] = assay: Antitumor activity against human DU-145 cells xenografted in BALB/c nude mouse assessed as tumor growth inhibition at 30 mg/kg, ip measured upto 30 days; type: functional; details: DU-145, 720 h, time <= 30 day, read-out: TGI
[4] = Half-life in Albino Wistar rat at 15 mg/kg, iv administered as pluronic F127 formulation measured upto 72 hrs by high-performance liquid chromatography tandem mass spectrometric analysis; type: ADME, organism-based; details: in vivo
[5] = Acute toxicity in ICR mouse assessed as violation of motor activity in hind limb administered intravenously as pluronic F127 formulation and measured for 14 days; details: in vivo, iv, 336 h, dose 183-960 mg/kg, time 14 day
[6] = AUC (0 to infinity) in Soviet Chinchilla rabbit at 8.1 mg/kg, iv administered as pluronic F127 formulation measured upto 72 hrs by high-performance liquid chromatography tandem mass spectrometric analysis; type: ADME, organism-based, Oryctolagus cuniculus; set-up: dose 8.1 mg/kg, time < 72 hrs, route iv; details: in vivo
CWR22R [7] = assay: Antitumor activity against human 22Rv1 cells xenografted in Balb/c nude mouse assessed as tumor growth inhibition at 10 mg/kg, ip administered once in two days for three times and measured 1 day after the end of treatment relative to control; type: functional; details: 22Rv1, 168 h, time 7 day, read-out: TGI
[8] = Acute toxicity in ICR mouse assessed as animal death at 183 to 960 mg/kg, iv administered for 14 days as pluronic F127 formulation and measured after 5 days; type: organism-based; details: in vivo, 456 h, dose 183-960 mg/kg, time 19 day
[9] = Chronic toxicity in rat assessed as reduction in body weight at 15 to 18.75 mg/kg, iv administered as pluronic F127 formulation at 4 intervals for 21 days and observed on 77 th day; type: organism-based; details: in vivo, 1848 h, dose 15-18.75 mg/kg, time 77 day
[10] = Chronic toxicity in rat assessed as change in alkaline phosphatase level at 18.75 to 22.5 mg/kg, iv administered as pluronic F127 formulation at 4 intervals for 21 days and observed 3 weeks post last injection; type: organism-based; details: in vivo, 2544 h, dose 18.75-22.5 mg/kg, time 106 day
[11] = Chronic toxicity in Soviet Chinchilla rabbit assessed as decrease in body weight at 10.17 mg/kg, iv administered as pluronic F127 formulation at 4 intervals for 21 days and observed upto day 49; type: organism-based, Oryctolagus cuniculus; details: in vivo, 1176 h, time < 49 day
[12] = Acute toxicity in ICR mouse assessed as maximum tolerated dose administered intravenously as pluronic F127 formulation and measured for 14 days; details: in vivo, route iv, time 14 day
[13] = AUC (0 to t) in Albino Wistar rat at 15 mg/kg, iv administered as pluronic F127 formulation measured upto 72 hrs by high-performance liquid chromatography tandem mass spectrometric analysis; type: ADME, organism-based; set-up: dose 15 mg/kg, time < 72 hrs, route iv; details: in vivo
[14] = Chronic toxicity in rat assessed as hair loss at 22.5 mg/kg, iv administered as pluronic F127 formulation at 4 intervals for 21 days and observed 3 weeks post last injection; type: organism-based; details: in vivo, 2544 h, time 106 day
[15] = Chronic toxicity in rat assessed as increase in relative spleen mass at 18.75 mg/kg, iv administered as pluronic F127 formulation at 4 intervals for 21 days and observed 3 weeks post last injection relative to control; type: organism-based; details: in vivo, 2544 h, time 106 day
[16] = Chronic toxicity in rat assessed as increase in relative kidney weight at 18.75 mg/kg, iv administered as pluronic F127 formulation at 4 intervals for 21 days and observed 3 weeks post last injection; type: organism-based; details: in vivo, 2544 h, time 106 day
[17] = Chronic toxicity in rat assessed as decrease in erythrocytes in blood administered intravenously as pluronic F127 formulation at 4 intervals for 21 days and observed 3 weeks post last injection relative to control; type: cell-based; details: iv, 2544 h, time 106 day
CWR22R [18] = assay: Antitumor activity against human 22Rv1 cells xenografted in Balb/c nude mouse assessed as tumor growth inhibition at 20 mg/kg, ip administered once in two days for three times and measured 1 day after the end of treatment relative to control; type: functional; details: 22Rv1, 168 h, time 7 day, read-out: TGI
[19] = Aqueous solubility of compound; type: physicochemical
CWR22R [20] = assay: Effect on cell stiffness in human 22Rv1 cells assessed as increase in young's modulus at 2.7 nM measured after 1 hr by topography based scanning ion-conductance microscopic analysis; type: functional
[21] = Chronic toxicity in rat assessed as increase in relative mass of stomach administered intravenously as pluronic F127 formulation at 4 intervals for 21 days and observed 3 weeks post last injection relative to control; type: tissue-based; details: in vivo, iv, 2544 h, time 106 day
[22] = Chronic toxicity in rat assessed as change in relative density of urine at 22.5 mg/kg, iv administered as pluronic F127 formulation at 4 intervals for 21 days and observed 3 weeks post last injection; type: organism-based; details: in vivo, 2544 h, time 106 day
DU-145 [23] = assay: Antitumor activity against human DU-145 cells xenografted in BALB/c nude mouse assessed as reduction in tumor growth index at 60 mg/kg, ip measured upto 30 days (reference value: 1110.1 +/- 136.7 %); type: functional; set-up: scale not given: the % may be the effect or the level left; details: time <= 30 day
[24] = AUC (0 to infinity) in Albino Wistar rat at 15 mg/kg, iv administered as pluronic F127 formulation measured upto 72 hrs by high-performance liquid chromatography tandem mass spectrometric analysis; type: ADME, organism-based; set-up: dose 15 mg/kg, time < 72 hrs, route iv; details: in vivo
Liver carboxylesterase = biological target: T1, Liver carboxylesterase (Sus scrofa, UniProt Q29550); assay: Stability of the compound in porcine liver esterase assessed as compound remaining measured upto 96 hrs by LCMS based mass spectrometric analysis relative to initial amount; type: ADME; details: pig, read-out: Stability
T1 sequence (Q29550 whole entry): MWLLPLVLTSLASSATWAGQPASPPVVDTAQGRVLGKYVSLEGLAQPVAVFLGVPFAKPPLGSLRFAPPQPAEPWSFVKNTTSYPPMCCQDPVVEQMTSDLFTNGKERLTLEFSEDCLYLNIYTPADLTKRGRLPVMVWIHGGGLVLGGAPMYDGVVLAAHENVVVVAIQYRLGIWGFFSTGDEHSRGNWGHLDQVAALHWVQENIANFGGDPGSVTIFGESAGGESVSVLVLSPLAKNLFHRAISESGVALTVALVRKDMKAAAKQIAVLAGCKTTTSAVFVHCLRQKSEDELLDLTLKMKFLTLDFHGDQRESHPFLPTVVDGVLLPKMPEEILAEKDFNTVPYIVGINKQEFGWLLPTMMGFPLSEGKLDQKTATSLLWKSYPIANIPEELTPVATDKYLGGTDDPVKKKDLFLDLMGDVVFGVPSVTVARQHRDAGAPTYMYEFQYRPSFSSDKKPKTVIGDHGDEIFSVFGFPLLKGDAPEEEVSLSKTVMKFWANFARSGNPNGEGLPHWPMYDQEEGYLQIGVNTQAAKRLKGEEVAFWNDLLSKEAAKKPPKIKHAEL

Question: What does the source list for `CC(=O)O[C@@]12CO[C@@H]1C[C@H](O)[C@@]1(C)C(=O)[C@H](O)C3=C(C)[C@@H](OC(=O)[C@H](OC(=O)CCCc4cn(CCCNC(=O)[C@H](Cc5ccc(O)cc5)NC(=O)[C@H](Cc5ccccc5)NC(=O)CCC(=O)NCCCCCC(=O)N(CCCC[C@H](NC(=O)N[C@@H](CCC(=O)O)C(=O)O)C(=O)O)Cc5cccc(Cl)c5)nn4)[C@@H](NC(=O)OC(C)(C)C)c4ccccc4)C[C@@](O)([C@@H](OC(=O)c4ccccc4)[C@H]21)C3(C)C`?
Answer: MRT last at 72 h [1]: 7.4 h; Activity [2]: Toxic; inhibition in vivo at 30 mg/kg (DU-145 [3]): 81.7%; half-life [4]: 59.8 min; Activity [5]: Toxic; AUC(0-inf) [6]: 289 µg·h/mL; inhibition in vivo at 10 mg/kg (CWR22R [7]): 84%; Activity [8]: Toxic; Activity [9]: Toxic; Activity [10]: Non-Toxic; Activity [11]: Toxic; MTD at 336 h [12]: 183 mg/kg; AUC(0-t) at 72 h [13]: 28000 ng·h/mL; Activity [14]: Toxic; Activity [15]: Toxic; Activity [16]: Toxic; Activity [17]: Toxic; inhibition in vivo at 20 mg/kg (CWR22R [18]): 78%; solubility [19]: 130 µg/mL (≈ 66.6 µM); Activity (CWR22R [20]): Active; Activity [21]: Toxic; Activity [22]: Toxic; Activity (DU-145 [23]): 150.9%; AUC(0-inf) [24]: 34000 ng·h/mL; remaining at 96 h (Liver carboxylesterase): 60%
